In patent publication US20080261994A1, “CYCLOPROPANE COMPOUNDS AND PHARMACEUTICAL USE THEREOF” (Japan Tobacco Inc., priority 2003, published 2008):
Where two headings read alike, the source gives them in different places.

Key:
Type in all cases: biochemical
Recombinant Human MMP-13 = target: T1, Recombinant Human MMP-13 (Homo sapiens, UniProt P45452); test: MMP-13 inhibitory activity (MMP-13 specific fluorescent substrate with quencher)
T1 construct: purchased R&D systems 511-MM
How it was run: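 IC50 (μM) derived from % inhibition, normalised to wells without enzyme and without inhibitor, fluorescence read at 325/405 nm. Enzyme and compound preceded addition of the quenched 7-MCA…DPA substrate; Tris-HCl buffer, 25 °C for 1 h, acetic-acid stop.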

aggrecanase-1 = target: T2, aggrecanase-1 (Homo sapiens, UniProt O75173); test: Aggrecanase-1 inhibitory action (Particle Assay, GAG release from aggrecan-containing polyacrylamide particles)
T2 sequence (O75173 213-837): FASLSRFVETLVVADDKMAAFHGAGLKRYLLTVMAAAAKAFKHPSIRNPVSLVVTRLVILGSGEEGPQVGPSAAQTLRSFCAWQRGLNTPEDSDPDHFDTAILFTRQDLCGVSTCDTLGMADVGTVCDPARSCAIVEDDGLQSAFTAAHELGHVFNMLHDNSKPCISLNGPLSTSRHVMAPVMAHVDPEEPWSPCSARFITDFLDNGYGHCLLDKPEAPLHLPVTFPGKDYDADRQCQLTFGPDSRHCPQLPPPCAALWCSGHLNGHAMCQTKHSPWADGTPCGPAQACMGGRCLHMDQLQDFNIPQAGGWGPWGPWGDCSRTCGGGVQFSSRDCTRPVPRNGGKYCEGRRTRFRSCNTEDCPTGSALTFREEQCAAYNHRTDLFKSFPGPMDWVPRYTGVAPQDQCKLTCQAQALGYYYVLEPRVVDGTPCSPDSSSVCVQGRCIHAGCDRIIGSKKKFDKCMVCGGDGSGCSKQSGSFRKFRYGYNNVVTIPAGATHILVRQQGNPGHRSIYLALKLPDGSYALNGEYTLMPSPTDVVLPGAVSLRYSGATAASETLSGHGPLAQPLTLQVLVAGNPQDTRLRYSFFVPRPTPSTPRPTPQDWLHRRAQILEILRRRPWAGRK
How it was run: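 Readout was dimethylmethylene blue absorbance (595 nm) of glycosaminoglycan liberated into supernatant, calibrated with whale chondroitin sulfate. Substrate was aggrecan in polyacrylamide particles, digested 15 h at 37° C in Tris-HCl; TC50 (μM) derived from inhibition relative to no-enzyme and no-inhibitor controls.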

MMP-1 = target: T3, MMP-1 (Homo sapiens, UniProt P03956); test: MMP-1 inhibitory action (Type I collagen Activity Measurement kit, FITC-labeled collagen type I)
T3 sequence (P03956 100-469): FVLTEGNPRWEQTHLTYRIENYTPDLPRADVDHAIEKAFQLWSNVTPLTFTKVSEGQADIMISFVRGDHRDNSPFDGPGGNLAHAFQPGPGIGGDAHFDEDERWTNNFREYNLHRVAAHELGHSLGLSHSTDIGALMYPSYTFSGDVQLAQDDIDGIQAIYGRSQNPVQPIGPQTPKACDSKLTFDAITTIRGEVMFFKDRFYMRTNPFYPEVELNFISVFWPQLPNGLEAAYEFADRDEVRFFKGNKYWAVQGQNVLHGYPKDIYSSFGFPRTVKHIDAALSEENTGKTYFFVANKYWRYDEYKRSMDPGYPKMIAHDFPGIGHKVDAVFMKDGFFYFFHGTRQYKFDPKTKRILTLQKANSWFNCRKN

[1] = Experimental Example 3, read-out: IC50 MMP13
[2] = Experimental Example 1, read-out: IC50 AG1
[3] = Experimental Example 2, read-out: IC50 MMP1
[4] = Recombinant Human MMP-13, fluorescent substrate, 25° C. for 1 h, read-out: IC50 MMP13 (Experimental Example 3)
[5] = aggrecanase-1 inhibitory action, read-out: IC50 AG1 (Experimental Example 1)
[6] = MMP-1 inhibitory action, FITC-labeled collagen type I, 37° C. for 3 hr, read-out: IC50 MMP1 (Experimental Example 2)

Row | Compound | IC50 (Recombinant Human MMP-13; [1]) | IC50 (aggrecanase-1; [2]) | IC50 (MMP-1; [3]) | IC50 (Recombinant Human MMP-13; [4]) | IC50 (aggrecanase-1; [5]) | IC50 (MMP-1; [6])
1 | C[C@]1(c2ccccc2)C[C@@]1(NS(=O)(=O)c1ccc(-c2cccc(N)c2)s1)C(=O)O [Example 2-452] | < 100 nM | < 1000 nM | < 1000 nM |  |  | 
2 | CC(=O)OCCCC1(c2ccccc2)CC1(NS(=O)(=O)c1ccc(-c2cc(C(F)(F)F)on2)s1)C(=O)O (stereo not drawn) [Example 2-264] |  |  |  | < 100 nM | < 100 nM | ≥ 1000 nM
3 | CC1[C@H](c2ccccc2)[C@]1(NS(=O)(=O)N1CCC(OCc2cccc(Cl)c2)C1)C(=O)O (stereo partly drawn) [Example 2-549] | ≥ 1000 nM | ≥ 1000 nM | ≥ 1000 nM |  |  | 
4 | O=C(Nc1cccc(C2CC2(NS(=O)(=O)c2ccc(-c3ccc(Cl)cc3)cc2)C(=O)O)c1)c1cccnc1 (stereo not drawn) [Example 1-64] |  |  |  | < 100 nM | < 1000 nM | ≥ 1000 nM
5 | NCC1(c2ccccc2)CC1(NS(=O)(=O)c1ccc(-c2ccc(Cl)cc2)s1)C(=O)O (stereo not drawn) [Example 2-361] | ≥ 1000 nM | ≥ 1000 nM | ≥ 10000 nM |  |  | 
6 | O=C(O)C1(NS(=O)(=O)c2ccc(-c3ccc(Cl)cc3)s2)CC1c1ccccc1CN1CCOCC1 (stereo not drawn) [Example 2-91] |  |  |  | < 1000 nM | < 1000 nM | ≥ 10000 nM
7 | O=C(O)C1(NS(=O)(=O)c2ccc(-c3ccc(Cl)cc3)cc2)CC1c1cccc(OCc2cccnc2)c1 (stereo not drawn) [Example 1-76] |  |  |  | < 100 nM | < 1000 nM | ≥ 10000 nM
8 | Cc1cc(C2CC2(NS(=O)(=O)c2ccc(-c3cc(C(F)(F)F)on3)s2)C(=O)O)no1 (stereo not drawn) [Example 2-314] | ≥ 10000 nM | ≥ 1000 nM | ≥ 10000 nM |  |  | 
9 | CC1[C@H](c2ccccc2)[C@]1(NS(=O)(=O)N1CCN(c2ccc(Cl)c(F)c2)CC1)C(=O)O (stereo partly drawn) [Example 2-459] | < 100 nM | < 1000 nM | ≥ 1000 nM |  |  | 
10 | O=C(O)C1(NS(=O)(=O)c2ccc(-c3cc(C(F)(F)F)on3)s2)C2CCCc3ccccc3C21 (stereo not drawn) [Example 2-305] | < 100 nM | < 100 nM | ≥ 1000 nM |  |  | 
11 | Cc1nc(-c2ccc(S(=O)(=O)N[C@@]3(C(=O)O)C[C@@H]3c3ccccc3)s2)cs1 [Example 2-50] |  |  |  | ≥ 1000 nM | ≥ 1000 nM | ≥ 10000 nM
12 | CC1[C@H](c2ccccc2)[C@]1(NS(=O)(=O)c1ccc(-c2ccc(Cl)cc2)s1)C(=O)O (stereo partly drawn) [Example 2-262] |  |  |  | < 100 nM | < 100 nM | < 1000 nM
13 | CC1[C@H](c2ccccc2)[C@]1(NS(=O)(=O)c1cn2cc(Cn3cc(Cl)cn3)nc2s1)C(=O)O (stereo partly drawn) [Example 2-520] | ≥ 1000 nM | ≥ 1000 nM | ≥ 1000 nM |  |  | 
14 | CC(=O)c1ccc(-c2ccc(S(=O)(=O)N[C@@]3(C(=O)O)C[C@]3(C)c3ccccc3)s2)cc1 [Example 2-573] | < 100 nM | < 1000 nM | ≥ 1000 nM |  |  | 
15 | O=C(c1ccccc1C1CC1(NS(=O)(=O)c1ccc(-c2ccc(Cl)cc2)s1)C(=O)O)N1CCOCC1 (stereo not drawn) [Example 2-76] |  |  |  | < 1000 nM | < 100 nM | ≥ 10000 nM
16 | O=C(Nc1cccc(C2CC2(NS(=O)(=O)c2ccc(-c3cc(C(F)(F)F)on3)s2)C(=O)O)c1)N1CCOCC1 (stereo not drawn) [Example 2-250] |  |  |  | < 100 nM | < 1000 nM | ≥ 1000 nM
17 | CN1CCN(C(=O)CCc2ccc([C@H]3C[C@@]3(NS(=O)(=O)c3ccc(-c4cc(C(F)(F)F)on4)s3)C(=O)O)cc2)CC1 [Example 2-280] | < 100 nM | < 1000 nM | ≥ 10000 nM |  |  | 
18 | Cc1cc(-c2ccc(S(=O)(=O)N[C@@]3(C(=O)O)C(C)[C@@H]3c3ccccc3)s2)no1 (stereo partly drawn) [Example 2-374] | < 100 nM | < 100 nM | < 1000 nM |  |  | 
19 | Cc1ncc(-c2ccc(S(=O)(=O)N[C@@]3(C(=O)O)C[C@@H]3c3ccccc3)s2)s1 [Example 2-55] |  |  |  | ≥ 10000 nM | ≥ 1000 nM | ≥ 10000 nM
20 | CN(C)C(=O)c1ccc(C2CC2(NS(=O)(=O)c2ccc(-c3cc(C(F)(F)F)on3)s2)C(=O)O)cc1 (stereo not drawn) [Example 2-266] |  |  |  | < 1000 nM | < 1000 nM | ≥ 1000 nM

Row | Compound | IC50 (Recombinant Human MMP-13; [1]) | IC50 (aggrecanase-1; [2]) | IC50 (MMP-1; [3]) | IC50 (Recombinant Human MMP-13; [4]) | IC50 (aggrecanase-1; [5]) | IC50 (MMP-1; [6])
21 | CNC(=O)CCc1ccc([C@H]2C[C@@]2(NS(=O)(=O)c2ccc(-c3cc(C(F)(F)F)on3)s2)C(=O)O)cc1 [Example 2-281] | < 100 nM | < 100 nM | < 1000 nM |  |  | 
22 | Nc1ccc(S(=O)(=O)NC2(C(=O)O)CC2c2ccccc2)s1 (stereo not drawn) [Example 2-165] |  |  |  | ≥ 1000 nM | ≥ 10000 nM | ≥ 10000 nM
23 | CC1[C@H](c2ccccc2)[C@]1(NS(=O)(=O)N1CCc2ccccc2C1)C(=O)O (stereo partly drawn) [Example 2-535] | ≥ 1000 nM | ≥ 1000 nM | ≥ 1000 nM |  |  | 
24 | CC(C)SCC1(c2ccccc2)CC1(NS(=O)(=O)c1ccc(-c2ccc(Cl)cc2)s1)C(=O)O (stereo not drawn) [Example 2-349] | < 1000 nM | < 100 nM | ≥ 10000 nM |  |  | 
25 | O=C(O)C1(NS(=O)(=O)c2ccc(-c3ccc(Cl)cc3)cc2)CC1c1cccc(Nc2ccccn2)c1 (stereo not drawn) [Example 1-61] |  |  |  | < 100 nM | < 1000 nM | ≥ 1000 nM
26 | O=C(O)C1(NS(=O)(=O)c2ccc(-c3ccc(Cl)cc3)s2)CC1c1cccc(NS(=O)(=O)N2CCOCC2)c1 (stereo not drawn) [Example 2-269] | < 100 nM | < 100 nM | ≥ 1000 nM |  |  | 
27 | COc1cc(-c2ccc(S(=O)(=O)N[C@@]3(C(=O)O)C[C@]3(C)c3ccccc3)s2)ccc1Cl [Example 2-516] | < 1000 nM | < 1000 nM | ≥ 1000 nM |  |  | 
28 | O=C(O)C1(NS(=O)(=O)c2ccc(-c3cc(C(F)(F)F)on3)s2)CC1c1cc(CO)on1 (stereo not drawn) [Example 2-317] | < 1000 nM | < 1000 nM | ≥ 1000 nM |  |  | 
29 | CC1C(c2ccccc2)C1(NS(=O)(=O)c1ccc(Cc2ccccc2)s1)C(=O)O (stereo not drawn) [Example 2-508] | ≥ 1000 nM | ≥ 1000 nM | ≥ 1000 nM |  |  | 
30 | CN(CCO)C(=O)OCC1(c2ccccc2)CC1(NS(=O)(=O)c1ccc(-c2cc(C(F)(F)F)on2)s1)C(=O)O (stereo not drawn) [Example 2-332] | < 1000 nM | < 1000 nM | ≥ 1000 nM |  |  | 
31 | CC1[C@H](c2ccccc2)[C@]1(NS(=O)(=O)c1ccc(-c2cc(N(C)C)on2)s1)C(=O)O (stereo partly drawn) [Example 2-419] | < 100 nM | < 100 nM | < 1000 nM |  |  | 
32 | COc1cccc(C2(C)CC2(NS(=O)(=O)c2ccc(-c3cc(C(F)(F)F)on3)s2)C(=O)O)c1 (stereo not drawn) [Example 2-610] | ≥ 1000 nM | < 100 nM | < 1000 nM |  |  | 
33 | NCCc1ccc([C@H]2C[C@@]2(NS(=O)(=O)c2ccc(-c3cc(C(F)(F)F)on3)s2)C(N)=O)cc1 [Example 2-300] | < 100 nM | < 1000 nM | ≥ 1000 nM |  |  | 
34 | O=C(O)C1(NS(=O)(=O)c2ccc(-c3cc(C(F)(F)F)on3)s2)CC1c1cccc(NS(=O)(=O)N2CCOCC2)c1 (stereo not drawn) [Example 2-267] | < 100 nM | < 100 nM | ≥ 1000 nM |  |  | 
35 | CC1C(NS(=O)(=O)c2ccc(-c3cc(C(F)(F)F)on3)s2)(C(=O)O)C1(C)c1ccccc1 (stereo not drawn) [Example 2-597] | ≥ 10000 nM | ≥ 1000 nM | ≥ 1000 nM |  |  | 
36 | O=C(O)C1(NS(=O)(=O)c2ccc(-c3ccc(Cl)cc3)s2)CC1c1ccccc1 (stereo not drawn) [Example 1-69] |  |  |  | < 1000 nM | < 100 nM | ≥ 10000 nM
37 | O=C(O)C1(NS(=O)(=O)N2CCN(c3ncc(Br)cn3)CC2)CC1c1ccccc1 (stereo not drawn) [Example 2-155] |  |  |  | < 1000 nM | ≥ 1000 nM | ≥ 10000 nM
38 | CC1C(c2ccccc2)C1(NS(=O)(=O)c1ccc(-c2cccc(CN3CCOCC3)c2)s1)C(=O)O (stereo not drawn) [Example 2-540] | < 1000 nM | ≥ 1000 nM | ≥ 1000 nM |  |  | 
39 | O=C(O)C1(NS(=O)(=O)c2ccc(-c3ccc(C(F)(F)F)cc3)s2)CC1c1ccccc1 (stereo not drawn) [Example 2-19] |  |  |  | < 1000 nM | < 1000 nM | ≥ 10000 nM
40 | CC(F)(F)c1cc(-c2ccc(S(=O)(=O)N[C@@]3(C(=O)O)C[C@@H]3c3ccccc3)s2)no1 [Example 2-84] |  |  |  | < 100 nM | < 100 nM | < 1000 nM
